{
  "source": "EPA's ToxRefDB 2",
  "key": {"dog [1]": {"test_system": "dog", "settings": "Chronic toxicity, beagle, Oral, Feed, dose end: 394 day, group: systemic"}, "dog [2]": {"test_system": "dog", "settings": "Subchronic oral toxicity in nonrodent, beagle, Feed, dose end: 98 day, group: systemic"}, "rat [3]": {"test_system": "rat", "settings": "Subchronic oral toxicity in rodents, wistar, Feed, dose end: 90 day, group: systemic"}, "rat [4]": {"test_system": "rat", "settings": "Multigenerational reproductive toxicity study, wistar, Oral, Feed, dose end: 2 generation"}, "rat [5]": {"test_system": "rat", "settings": "Prenatal developmental toxicity study, wistar, Oral, Gavage/Intubation, dose end: 20 GD"}, "mouse [6]": {"test_system": "mouse", "settings": "Carcinogenicity, cd1, Oral, Feed, dose end: 78 week, group: systemic"}, "mouse [7]": {"test_system": "mouse", "settings": "Subchronic oral toxicity in rodents, cd1, Feed, dose end: 90 day, group: systemic, systemic / organ weight / liver / relative to body weight + systemic / organ weight / liver / absolute + systemic / clinical chemistry / …"}, "rat [8]": {"test_system": "rat", "settings": "Subchronic oral toxicity in rodents, sprague dawley, Feed, dose end: 90 day, group: systemic"}, "dog [9]": {"test_system": "dog", "settings": "Subchronic oral toxicity in nonrodent, beagle, Feed, dose end: 13 week, group: systemic, systemic / clinical chemistry / alanine aminotransferase (alt/sgpt) / alanine aminotransferase (alt/sgpt) + systemic / clinical chemistry / …"}, "rat [10]": {"test_system": "rat", "settings": "Subchronic oral toxicity in rodents, sprague dawley, Feed, dose end: 90 day, group: systemic, systemic / hematology / erythrocyte (rbc) count differential / erythrocyte (rbc) + systemic / hematology / hematocrit (hct) / hematocrit (…"}, "rat [11]": {"test_system": "rat", "settings": "Combined chronic toxicity/carcinogenicity; other; Oral; Feed; dose end: 22 month; group: systemic; systemic / hematology / erythrocyte (rbc) count differential / erythrocyte (rbc) + systemic / hematology / hematocrit (hct) / hematocrit (…"}, "mouse [12]": {"test_system": "mouse", "settings": "Carcinogenicity; cd1; Oral; Feed; dose end: 18 month; group: systemic; systemic / organ weight / liver / absolute + systemic / organ weight / liver / relative to body weight + systemic / pathology microscopic / …"}, "dog [13]": {"test_system": "dog", "settings": "Chronic toxicity, beagle, Oral, Feed, dose end: 52 week, group: systemic"}, "rabbit": {"test_system": "rabbit", "settings": "Prenatal developmental toxicity study, new zealand white, Oral, Gavage/Intubation, dose end: 19 GD"}, "[14]": {"settings": "systemic / clinical chemistry / alkaline phosphatase (alp/alk) / alkaline phosphatase (alp/alk) + systemic / clinical chemistry / gamma …"}, "[15]": {"settings": "systemic / pathology microscopic / kidney / pigmentation"}, "[16]": {"settings": "systemic / in life observation / body weight / body weight gain + systemic / in life observation / food consumption / food efficiency"}, "[17]": {"settings": "systemic / in life observation / body weight / body weight gain + systemic / in life observation / food consumption / food efficiency + …"}, "[18]": {"settings": "systemic / hematology / hemoglobin (hgb) / hemoglobin (hgb)"}, "[19]": {"settings": "systemic / in life observation / body weight / body weight + systemic / in life observation / body weight / body weight gain + systemic / in…"}, "[20]": {"settings": "group: offspring, developmental / developmental malformation / bone / incomplete ossification + developmental / developmental landmark / preputial separation…"}, "[21]": {"settings": "group: parental, systemic / in life observation / body weight / body weight gain"}, "[22]": {"settings": "group: developmental, developmental / developmental malformation / bone / incomplete ossification"}, "[23]": {"settings": "group: maternal, systemic / organ weight / liver / absolute + systemic / organ weight / liver / relative to body weight"}, "[24]": {"settings": "systemic / clinical chemistry / alanine aminotransferase (alt/sgpt) / alanine aminotransferase (alt/sgpt) + systemic / clinical chemistry / …"}, "[25]": {"settings": "systemic / clinical chemistry / aspartate aminotransferase (ast/sgot) / aspartate aminotransferase (ast/sgot)"}, "[26]": {"settings": "systemic / in life observation / body weight / body weight + systemic / in life observation / body weight / body weight gain + systemic / …"}, "[27]": {"settings": "group: developmental, systemic / in life observation / body weight / fetal weight"}, "[28]": {"settings": "group: maternal, reproductive / reproductive performance / aborted / aborted + systemic / in life observation / clinical signs / body surface staining + …"}},
  "data": [
    {"smiles": "CO/N=C(/C1=NOCCO1)c1ccccc1Oc1ncnc(Oc2ccccc2Cl)c1F", "note": "[Fluoxastrobin]", "values": [
      {"measurement": "LOAEL", "setting": "dog [1]; [14]", "value": 7.7, "unit": "mg/kg/day"},
      {"measurement": "NOAEL", "setting": "dog [1]; [14]", "value": 1.5, "unit": "mg/kg/day"},
      {"measurement": "LEL", "setting": "dog [1]; [15]", "value": 0.7, "unit": "mg/kg/day"},
      {"measurement": "NEL", "setting": "dog [1]; [15]", "value": "< 0.7", "unit": "mg/kg/day"},
      {"measurement": "LEL", "setting": "dog [2]; [16]", "value": 3, "unit": "mg/kg/day"},
      {"measurement": "LOAEL", "setting": "dog [2]; [17]", "value": 24.2, "unit": "mg/kg/day"},
      {"measurement": "NEL", "setting": "dog [2]; [17]", "value": 1.4, "unit": "mg/kg/day"},
      {"measurement": "NOAEL", "setting": "dog [2]; [17]", "value": 3, "unit": "mg/kg/day"},
      {"measurement": "LEL", "setting": "rat [3]; [18]", "value": 21.5, "unit": "mg/kg/day"},
      {"measurement": "NEL", "setting": "rat [3]; [18]", "value": "< 21.5", "unit": "mg/kg/day"},
      {"measurement": "LOAEL", "setting": "rat [3]; [19]", "value": 580, "unit": "mg/kg/day"},
      {"measurement": "NOAEL", "setting": "rat [3]; [19]", "value": 70.4, "unit": "mg/kg/day"},
      {"measurement": "LEL", "setting": "rat [4]; [20]", "value": 862, "unit": "mg/kg/day"},
      {"measurement": "LOAEL", "setting": "rat [4]; [20]", "value": 862, "unit": "mg/kg/day"},
      {"measurement": "NEL", "setting": "rat [4]; [20]", "value": 77.4, "unit": "mg/kg/day"},
      {"measurement": "NOAEL", "setting": "rat [4]; [20]", "value": 77.4, "unit": "mg/kg/day"},
      {"measurement": "LEL", "setting": "rat [4]; [21]", "value": 665, "unit": "mg/kg/day"},
      {"measurement": "LOAEL", "setting": "rat [4]; [21]", "value": 665, "unit": "mg/kg/day"},
      {"measurement": "NEL", "setting": "rat [4]; [21]", "value": 70, "unit": "mg/kg/day"},
      {"measurement": "NOAEL", "setting": "rat [4]; [21]", "value": 70, "unit": "mg/kg/day"},
      {"measurement": "LEL", "setting": "rat [5]; [22]", "value": 300, "unit": "mg/kg/day"},
      {"measurement": "LOAEL", "setting": "rat [5]; [22]", "value": "> 1000", "unit": "mg/kg/day"},
      {"measurement": "NEL", "setting": "rat [5]; [22]", "value": 100, "unit": "mg/kg/day"},
      {"measurement": "NOAEL", "setting": "rat [5]; [22]", "value": "≥ 1000", "unit": "mg/kg/day"},
      {"measurement": "LEL", "setting": "rat [5]; [23]", "value": 1000, "unit": "mg/kg/day"},
      {"measurement": "LOAEL", "setting": "rat [5]; [23]", "value": "> 1000", "unit": "mg/kg/day"},
      {"measurement": "NEL", "setting": "rat [5]; [23]", "value": 300, "unit": "mg/kg/day"},
      {"measurement": "NOAEL", "setting": "rat [5]; [23]", "value": "≥ 1000", "unit": "mg/kg/day"},
      {"measurement": "LOAEL", "setting": "mouse [6]; [24]", "value": "> 776", "unit": "mg/kg/day"},
      {"measurement": "NEL", "setting": "mouse [6]; [24]", "value": 19, "unit": "mg/kg/day"},
      {"measurement": "NOAEL", "setting": "mouse [6]; [24]", "value": "≥ 776", "unit": "mg/kg/day"},
      {"measurement": "LEL", "setting": "mouse [6]; systemic / in life observation / body weight / body weight + systemic / organ weight / liver / relative to body weight", "value": 135, "unit": "mg/kg/day"},
      {"measurement": "LEL", "setting": "mouse [7]", "value": 81.1, "unit": "mg/kg/day"},
      {"measurement": "LOAEL", "setting": "mouse [7]", "value": "> 1300", "unit": "mg/kg/day"},
      {"measurement": "NEL", "setting": "mouse [7]", "value": "< 81.1", "unit": "mg/kg/day"},
      {"measurement": "NOAEL", "setting": "mouse [7]", "value": "≥ 1300", "unit": "mg/kg/day"}
    ]},
    {"smiles": "COC(=O)c1cccc(C)c1S(=O)(=O)NC(=O)Nc1nc(OCC(F)(F)F)nc(N(C)C)n1", "note": "[Triflusulfuron-methyl]", "values": [
      {"measurement": "LEL", "setting": "rat [8]; [25]", "value": 7.71, "unit": "mg/kg/day"},
      {"measurement": "NEL", "setting": "rat [8]; [25]", "value": "< 7.71", "unit": "mg/kg/day"},
      {"measurement": "LOAEL", "setting": "rat [8]; [16]", "value": 133, "unit": "mg/kg/day"},
      {"measurement": "NOAEL", "setting": "rat [8]; [17]", "value": 6.56, "unit": "mg/kg/day"},
      {"measurement": "LEL", "setting": "dog [9]", "value": 147, "unit": "mg/kg/day"},
      {"measurement": "LOAEL", "setting": "dog [9]", "value": 147, "unit": "mg/kg/day"},
      {"measurement": "NEL", "setting": "dog [9]", "value": 3.9, "unit": "mg/kg/day"},
      {"measurement": "NOAEL", "setting": "dog [9]", "value": 3.9, "unit": "mg/kg/day"},
      {"measurement": "LEL", "setting": "rat [10]", "value": 127, "unit": "mg/kg/day"},
      {"measurement": "LOAEL", "setting": "rat [10]", "value": 127, "unit": "mg/kg/day"},
      {"measurement": "NEL", "setting": "rat [10]", "value": 6.2, "unit": "mg/kg/day"},
      {"measurement": "NOAEL", "setting": "rat [10]", "value": 6.2, "unit": "mg/kg/day"},
      {"measurement": "LEL", "setting": "rat [11]", "value": 30.6, "unit": "mg/kg/day"},
      {"measurement": "LOAEL", "setting": "rat [11]", "value": 30.6, "unit": "mg/kg/day"},
      {"measurement": "NEL", "setting": "rat [11]", "value": 4.06, "unit": "mg/kg/day"},
      {"measurement": "NOAEL", "setting": "rat [11]", "value": 4.06, "unit": "mg/kg/day"},
      {"measurement": "LEL", "setting": "mouse [12]", "value": 349, "unit": "mg/kg/day"},
      {"measurement": "LOAEL", "setting": "mouse [12]", "value": 349, "unit": "mg/kg/day"},
      {"measurement": "NEL", "setting": "mouse [12]", "value": 20.9, "unit": "mg/kg/day"},
      {"measurement": "NOAEL", "setting": "mouse [12]", "value": 20.9, "unit": "mg/kg/day"},
      {"measurement": "LEL", "setting": "dog [13]; [26]", "value": 26.9, "unit": "mg/kg/day"},
      {"measurement": "NEL", "setting": "dog [13]; [26]", "value": 1, "unit": "mg/kg/day"},
      {"measurement": "LOAEL", "setting": "dog [13]; systemic / organ weight / liver / relative to body weight + systemic / pathology microscopic / liver / hypertrophy", "value": 95.5, "unit": "mg/kg/day"},
      {"measurement": "NOAEL", "setting": "dog [13]; systemic / organ weight / liver / relative to body weight + systemic / pathology microscopic / liver / hypertrophy + systemic / clinical …", "value": 27.7, "unit": "mg/kg/day"},
      {"measurement": "LEL", "setting": "rabbit; [27]", "value": 270, "unit": "mg/kg/day"},
      {"measurement": "LOAEL", "setting": "rabbit; [27]", "value": 270, "unit": "mg/kg/day"},
      {"measurement": "NEL", "setting": "rabbit; [27]", "value": 90, "unit": "mg/kg/day"},
      {"measurement": "NOAEL", "setting": "rabbit; [27]", "value": 90, "unit": "mg/kg/day"},
      {"measurement": "LEL", "setting": "rabbit; [28]", "value": 270, "unit": "mg/kg/day"},
      {"measurement": "LOAEL", "setting": "rabbit; [28]", "value": 270, "unit": "mg/kg/day"},
      {"measurement": "NEL", "setting": "rabbit; [28]", "value": 90, "unit": "mg/kg/day"},
      {"measurement": "NOAEL", "setting": "rabbit; [28]", "value": 90, "unit": "mg/kg/day"}
    ]}
  ]
}
